Data as given in patent US20250052769A1, “MIMOTOPES OF ARA H 2 AND USES OF THE SAME TO DIAGNOSE PEANUT ALLERGIES” (The Regents of the University of Colorado, A Body Corporate, priority 2023, published 2025).
“Also recorded” adds a separate entry of the source. Blank lines part the entries; values can stand above or below the substance they belong to. Non-standard residues stand in square brackets, D forms with d. No end group written: not given here. Hyp = O=C(O)[C@@H]1C[C@@H](O)CN1

Key:
Ara h 2-specific IgE [1] = experiment: Biotin/streptavidin ELISA of serum IgE binding to peptides; design: species or system human; details: for IgE binding by ELISA, Biotide peptides: serum pool at 10 IU/ml Ara h 2-sIgE, 20-30% pure Biotide peptides at 1 nM, Bt-anti-HuIgE 1:3,000 (FIG. 5A, 6A); for IgE binding by ELISA, purified peptides: serum pool at 10 IU/ml, 95-97% pure peptides at 5 nM, Bt-anti-HuIgE 1:500 (FIG. 5B, 6B)
Text: (§1) To produce the serum pool, 10 individual sera were pooled with the concentration of Ara h 2-sIgE normalized so that no one serum was predominant (Table 2). Seven sera were studied in detail, 3 of these were included in the serum pool and 4 independent of the serum pool (Table 2). The Colorado Multiple Institutional Review Board (COMIRB) approved this study. All adult patients and the parents or guardians of minors gave written informed consent. Minors who were >6 years of age, signed an assent.
(§2) Peptides for ELISAs were synthesized with an N-terminal linker arm (Ttds; JPT Peptides, Berlin) followed by biotin at the N terminus. Prior to generating microarrays with high fidelity sequences, we performed screening assays using the Biotide approach (JPT Peptides, Berlin) in which multiple related peptides are synthesized in a cost-effective manner at approximately 20% purity. For validation, selected peptides were also synthesized by standard methods and purified (95-97% pure) by HPLC (JPT Laboratories, Berlin). For all peptides of epitope 3 and the related mimotope studied here, trans-4-hydroxyproline (h) was substituted for second proline in the DPY_P motif as this substitution may enhance binding of IgE. Peptides for microarray assays were synthesized with the Ttds linker arm on the N terminus and printed onto microscope slides treated with a proprietary 3-dimensional surface by JPT Peptides (Berlin).
Streptavidin (InVitrogen) (5 μg/ml) was bound to micro titer plates by overnight incubation in PBS, the plates were washed once with PBST (0.05% Tween 20) and 50 μL of peptides were added at a final concentration of 1-5 nM in PBST for 1 hour at room temperature. Unoccupied streptavidin sites were then saturated with 400 μM biotin in PBS and the samples were probed with diluted sera from allergic subjects diluted in PBST with 0.1% albumin to contain 10 IU/ml of Ara h 2-sIgE. After overnight incubation at 4° C., slides were washed, incubated with HRP-labeled murine monoclonal anti-human IgE (clone HP6029; Southern Biotech 1:500-1:3,000), washed again and developed with TMB (ThermoFisher Scientific). Background binding of serum without peptide (OD=approximately 0.100) was subtracted. We also examined the background of peptide without serum and this was similar to, or lower than, the background of serum without peptide.
(§3) GraphPad Prism (versions 8.4-9.5 for the Macintosh (GraphPad; La Jolla, CA)) was used to generate graphs and for statistical analysis. The following analyses were performed: 1) for dose response curves, multiple unpaired t test with Welch correction for unequal variances; 2) to combine data from multiple assays, the data were normalized within each assay based on IgE binding to the native sequence (epitope 3) or the original sequence (mimotope A147) and expressed binding as percent of binding and 3) to compare differences in IgE binding for a specific alanine substitution, one way ANOVA followed by Dunnet's multiple comparison test.

Ara h 2-specific IgE [2] = experiment: Peptide microarray of serum IgE binding (dose response and alanine scans); design: species or system human
Text: as §1, §2
Each microscope slide contained 21 microarrays and within each microarray, peptides were printed in triplicate. 10-15 spots were not printed with any peptide as control spots. Sera were diluted to contain the same concentrations of Ara h 2-sIgE (usually 10 IU/ml) or at various concentrations for dose response assays and assayed in duplicate arrays on 3-4 separate days as previously described except for use of biotinylated anti-IgE (clone HP6029 from Southern Biotech at 1:1,000). For each microarray assay, the density units of three observations within each microarray were averaged and then the data from duplicate microarrays were averaged. To combine data from multiple independent assays, the signal within each assay was normalized to that of a wild-type peptide and the signal was expressed as a percent of that with the original peptide. Background binding of serum without peptide (300-500 AU) was subtracted. We also examined the background of peptide without serum. Only for the mimotope, this background was higher than the background of serum without peptide and these values (5,000-10,000 AU), which were quite high, were subtracted from the signal of serum with peptide (which bound IgE very strongly (20,000-30,000 AU), instead of subtracting the background of serum without peptide.
Linear sequences of epitope 3 and the mimotope as well as derivative peptides in which each amino acid was sequentially changed to alanine were studied.
as §3

IgE binding after alanine substitution, density units normalized to WT sequence (Ara h 2-specific IgE [2]; alanine scan of Epitope 3-Core, serum pool at 10 IU/ml Ara h 2-sIgE, percent of WT signal (FIG. 1B)): 9±6%
Substance: Y10: Epitope 3-Core (DEDSYERDPYShSQDP) with amino acid Y10 changed to alanine (DEDSYERDPAS[Hyp]SQDP)
Relevance of the residue for IgE binding, alanine scan of Epitope 3-Core with individual sera (Ara h 2-specific IgE [2]; 7 individual sera (FIG. 2B)): relevant for most sera

IgE binding by ELISA, purified peptides (Ara h 2-specific IgE [1]): bound similar amounts of IgE
Substance: ERDPYShSQDPYShSPYDRR (ERDPYS[Hyp]SQDPYS[Hyp]SPYDRR) [20mer version of epitope 3]

The remaining lines, values behind:

Substance: LLDPYAhRAWTK (LLDPYA[Hyp]RAWTK) [mimotope with P->h]
IgE binding by ELISA, Biotide peptides (Ara h 2-specific IgE [1]): bound more IgE at all doses than did the original mimotope
IgE binding by ELISA, Biotide peptides (Ara h 2-specific IgE [1]; listed as SEQ ID NO:2): binding was dramatically enhanced
IgE binding by ELISA, purified peptides (Ara h 2-specific IgE [1]): No significant differences were seen
IgE binding by ELISA, purified peptides (Ara h 2-specific IgE [1]; listed as SEQ ID NO:2): bound similar amounts of IgE as did Epitope 3-Core
IgE binding by ELISA, purified peptides (Ara h 2-specific IgE [1]; listed as substituted mimotope): bound amounts of IgE similar to that of the Epitope 3-Core peptide
Microarray signal of serum with peptide (Ara h 2-specific IgE [2]; before background subtraction): 20,000-30,000 AU
IgE binding in microarray format at Ara h 2 sIgE of 0.3 kU/L (Ara h 2-specific IgE [2]; serum pool at 0.3 kU/L Ara h 2 sIgE, p<0.05 (FIG. 7)): bound significantly more IgE than did Epitope 3-Core
IgE binding in microarray format, dose response of serum (Ara h 2-specific IgE [2]; serum pool at various doses, P substituted with h in all peptides (FIG. 7)): tended to bind more IgE at lower doses of serum

Substance: LLDPYAPRAWTK [A147]
IgE binding by ELISA, Biotide peptides (Ara h 2-specific IgE [1]): did not bind IgE well

Substance: DEDSYERDPYShSQDP (DEDSYERDPYS[Hyp]SQDP) [Epitope 3-Core]
IgE binding by ELISA, Biotide peptides (Ara h 2-specific IgE [1]): bind IgE almost as well as the 20mer sequence
IgE binding by ELISA, purified peptides (Ara h 2-specific IgE [1]): bound similar amounts of IgE; also recorded: No significant differences were seen; also recorded: strong binding
